In paper PMC5428509, “Irreversible inhibition of BTK kinase by a novel highly selective inhibitor CHMFL-BTK-11 suppresses inflammatory response in rheumatoid arthritis model” (Scientific Reports, 2017):

Columns and labels:
Experiment in all cases: biochemical
Design in all cases: KinomeScan competition binding panel (DiscoveRx), percent of control at 1 uM
Conditions in all cases: read-out: Percent Control
ASK2 = target: T1, ASK2 (Homo sapiens, UniProt O95382)
T1 construct: gene MAP3K6
Outline: (§1)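 Selectivity profiled across 456 kinases/mutants by KinomeScan binding technology.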

AXL = AXL (Homo sapiens, UniProt P30530)
Outline: as §1

CAMK1G = CAMK1G (Homo sapiens, UniProt Q96NX5)
Outline: as §1

CDC2L2 = target: T2, CDC2L2 (Homo sapiens, UniProt Q9UQ88)
T2 construct: gene CDK11A
Outline: as §1

CDK4-cyclinD1 = target: T3, CDK4-cyclinD1 (Homo sapiens, UniProt P11802)
T3 construct: cyclinD1
Outline: as §1

CDK4-cyclinD3 = target: T4, CDK4-cyclinD3 (Homo sapiens, UniProt P11802)
T4 construct: cyclinD3
Outline: as §1

CDKL5 = CDKL5 (Homo sapiens, UniProt O76039)
Outline: as §1

CSNK1G3 = CSNK1G3 (Homo sapiens, UniProt Q9Y6M4)
Outline: as §1

DRAK2 = target: T5, DRAK2 (Homo sapiens, UniProt O94768)
T5 construct: gene STK17B
Outline: as §1

DYRK1A = DYRK1A (Homo sapiens, UniProt Q13627)
Outline: as §1

DYRK1B = DYRK1B (Homo sapiens, UniProt Q9Y463)
Outline: as §1

EPHB6 = EPHB6 (Homo sapiens, UniProt O15197)
Outline: as §1

[1] = target: T6, JAK1(JH2domain-pseudokinase) (Homo sapiens, UniProt P23458)
T6 construct: JH2domain-pseudokinase
Outline: as §1

KIT(V559D) = KIT(V559D) (Homo sapiens, UniProt P10721, V559D)
Outline: as §1

LOK = target: T7, LOK (Homo sapiens, UniProt O94804)
T7 construct: gene STK10
Outline: as §1

MAP3K1 = MAP3K1 (Homo sapiens, UniProt Q13233)
Outline: as §1

MYO3A = MYO3A (Homo sapiens, UniProt Q8NEV4)
Outline: as §1

PFTAIRE2 = target: T8, PFTAIRE2 (Homo sapiens, UniProt Q96Q40)
T8 construct: gene CDK15
Outline: as §1

PIK3C2G = PIK3C2G (Homo sapiens, UniProt O75747)
Outline: as §1

RIOK1 = RIOK1 (Homo sapiens, UniProt Q9BRS2)
Outline: as §1

[2] = target: T9, RSK4(Kin.Dom.1-N-terminal) (Homo sapiens, UniProt Q9UK32)
T9 construct: gene RPS6KA6; Kin.Dom.1-N-terminal
Outline: as §1

[3] = target: T10, RSK4(Kin.Dom.2-C-terminal) (Homo sapiens, UniProt Q9UK32)
T10 construct: gene RPS6KA6; Kin.Dom.2-C-terminal
Outline: as §1

SLK = SLK (Homo sapiens, UniProt Q9H2G2)
Outline: as §1

TAOK2 = TAOK2 (Homo sapiens, UniProt Q9UL54)
Outline: as §1

Sequence of CSNK1G3 (Q9Y6M4 whole entry): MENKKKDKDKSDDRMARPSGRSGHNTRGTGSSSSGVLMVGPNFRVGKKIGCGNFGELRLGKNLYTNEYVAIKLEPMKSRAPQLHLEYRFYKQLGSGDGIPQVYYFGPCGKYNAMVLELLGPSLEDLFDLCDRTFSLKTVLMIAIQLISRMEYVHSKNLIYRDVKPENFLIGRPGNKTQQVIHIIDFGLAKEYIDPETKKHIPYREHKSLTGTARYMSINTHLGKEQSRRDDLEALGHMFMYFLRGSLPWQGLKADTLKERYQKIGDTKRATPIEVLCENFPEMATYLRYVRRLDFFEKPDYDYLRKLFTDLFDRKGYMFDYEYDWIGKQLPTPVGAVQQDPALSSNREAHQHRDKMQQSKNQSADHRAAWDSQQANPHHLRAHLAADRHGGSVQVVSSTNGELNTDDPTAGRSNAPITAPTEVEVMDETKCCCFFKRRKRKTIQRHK
T9 sequence (Q9UK32 whole entry): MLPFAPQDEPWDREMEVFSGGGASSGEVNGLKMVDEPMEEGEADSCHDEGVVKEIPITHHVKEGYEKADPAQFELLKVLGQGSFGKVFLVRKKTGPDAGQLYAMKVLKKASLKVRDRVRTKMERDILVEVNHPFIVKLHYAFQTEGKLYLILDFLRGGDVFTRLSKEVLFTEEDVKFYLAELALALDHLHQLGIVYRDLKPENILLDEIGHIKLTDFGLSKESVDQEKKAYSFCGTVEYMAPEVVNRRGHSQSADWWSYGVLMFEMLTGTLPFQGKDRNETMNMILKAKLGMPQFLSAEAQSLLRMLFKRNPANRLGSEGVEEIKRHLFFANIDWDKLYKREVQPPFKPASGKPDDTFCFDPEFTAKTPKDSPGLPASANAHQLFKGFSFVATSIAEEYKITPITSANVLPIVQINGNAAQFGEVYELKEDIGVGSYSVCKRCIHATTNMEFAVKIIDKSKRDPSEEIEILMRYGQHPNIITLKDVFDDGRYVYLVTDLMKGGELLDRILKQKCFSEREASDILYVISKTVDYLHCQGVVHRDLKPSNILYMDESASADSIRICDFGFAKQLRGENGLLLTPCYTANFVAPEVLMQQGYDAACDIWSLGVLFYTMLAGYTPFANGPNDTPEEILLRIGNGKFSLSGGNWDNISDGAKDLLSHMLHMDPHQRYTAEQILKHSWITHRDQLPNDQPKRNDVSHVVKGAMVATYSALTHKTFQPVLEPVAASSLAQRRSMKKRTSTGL
T10 sequence (Q9UK32 whole entry): as above
T5 sequence (O94768 whole entry): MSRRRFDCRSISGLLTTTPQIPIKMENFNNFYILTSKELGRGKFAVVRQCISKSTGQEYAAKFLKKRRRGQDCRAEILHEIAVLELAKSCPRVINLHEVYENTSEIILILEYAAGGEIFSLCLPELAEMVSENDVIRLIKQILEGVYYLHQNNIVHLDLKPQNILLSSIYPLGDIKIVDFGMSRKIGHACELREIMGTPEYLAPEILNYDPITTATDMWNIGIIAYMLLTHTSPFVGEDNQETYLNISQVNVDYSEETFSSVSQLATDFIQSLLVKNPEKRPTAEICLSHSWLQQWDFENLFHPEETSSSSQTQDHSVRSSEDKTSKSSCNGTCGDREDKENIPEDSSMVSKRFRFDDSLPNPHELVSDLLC
Sequence of MAP3K1 (Q13233 whole entry): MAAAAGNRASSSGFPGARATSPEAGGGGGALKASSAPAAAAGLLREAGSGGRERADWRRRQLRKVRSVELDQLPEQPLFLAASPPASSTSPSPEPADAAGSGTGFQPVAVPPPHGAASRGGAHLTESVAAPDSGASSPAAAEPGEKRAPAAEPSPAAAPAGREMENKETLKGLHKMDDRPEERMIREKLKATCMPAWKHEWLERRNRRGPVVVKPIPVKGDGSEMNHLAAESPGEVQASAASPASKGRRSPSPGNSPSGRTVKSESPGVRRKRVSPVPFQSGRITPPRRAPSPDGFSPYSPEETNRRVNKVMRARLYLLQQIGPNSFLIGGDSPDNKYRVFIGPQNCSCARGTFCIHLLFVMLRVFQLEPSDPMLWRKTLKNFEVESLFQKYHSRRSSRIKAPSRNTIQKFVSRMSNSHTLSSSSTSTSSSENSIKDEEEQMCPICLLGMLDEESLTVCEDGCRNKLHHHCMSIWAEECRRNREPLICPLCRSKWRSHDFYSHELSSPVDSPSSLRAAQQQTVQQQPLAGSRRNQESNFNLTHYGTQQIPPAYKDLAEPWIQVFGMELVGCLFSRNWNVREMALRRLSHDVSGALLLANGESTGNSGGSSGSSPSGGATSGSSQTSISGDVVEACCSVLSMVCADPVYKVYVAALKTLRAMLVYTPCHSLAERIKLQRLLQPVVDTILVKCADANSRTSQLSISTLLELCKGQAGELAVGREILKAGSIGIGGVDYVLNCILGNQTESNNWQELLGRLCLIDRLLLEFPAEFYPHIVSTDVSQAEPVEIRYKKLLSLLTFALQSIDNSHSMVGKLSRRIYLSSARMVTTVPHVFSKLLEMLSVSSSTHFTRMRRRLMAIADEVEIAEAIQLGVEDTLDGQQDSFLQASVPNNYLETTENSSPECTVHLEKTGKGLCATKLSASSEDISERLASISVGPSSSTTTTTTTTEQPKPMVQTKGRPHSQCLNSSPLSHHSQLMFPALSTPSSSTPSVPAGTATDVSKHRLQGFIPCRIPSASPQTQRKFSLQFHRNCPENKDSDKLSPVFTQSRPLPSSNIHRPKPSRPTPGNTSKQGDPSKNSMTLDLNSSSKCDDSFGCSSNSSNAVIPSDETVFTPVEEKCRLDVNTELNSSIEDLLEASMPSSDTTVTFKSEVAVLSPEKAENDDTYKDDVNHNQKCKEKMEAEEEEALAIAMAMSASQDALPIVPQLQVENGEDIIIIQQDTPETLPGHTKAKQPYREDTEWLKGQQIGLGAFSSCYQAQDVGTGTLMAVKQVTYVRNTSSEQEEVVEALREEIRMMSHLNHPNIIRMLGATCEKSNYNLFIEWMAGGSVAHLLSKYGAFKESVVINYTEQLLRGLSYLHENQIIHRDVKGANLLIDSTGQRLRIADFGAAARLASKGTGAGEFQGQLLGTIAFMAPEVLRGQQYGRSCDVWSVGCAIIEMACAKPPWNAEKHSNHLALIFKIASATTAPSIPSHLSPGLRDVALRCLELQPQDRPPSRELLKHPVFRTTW
T3 sequence (P11802 whole entry): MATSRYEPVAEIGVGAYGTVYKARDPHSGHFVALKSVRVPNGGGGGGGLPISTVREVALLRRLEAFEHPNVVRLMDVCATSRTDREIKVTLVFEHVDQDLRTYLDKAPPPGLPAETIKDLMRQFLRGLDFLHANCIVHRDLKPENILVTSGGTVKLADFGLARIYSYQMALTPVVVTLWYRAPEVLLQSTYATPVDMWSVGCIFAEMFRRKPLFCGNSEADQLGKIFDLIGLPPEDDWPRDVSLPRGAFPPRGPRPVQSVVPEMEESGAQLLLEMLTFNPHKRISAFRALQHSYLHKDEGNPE
T3 sequence (P24385 whole entry partner): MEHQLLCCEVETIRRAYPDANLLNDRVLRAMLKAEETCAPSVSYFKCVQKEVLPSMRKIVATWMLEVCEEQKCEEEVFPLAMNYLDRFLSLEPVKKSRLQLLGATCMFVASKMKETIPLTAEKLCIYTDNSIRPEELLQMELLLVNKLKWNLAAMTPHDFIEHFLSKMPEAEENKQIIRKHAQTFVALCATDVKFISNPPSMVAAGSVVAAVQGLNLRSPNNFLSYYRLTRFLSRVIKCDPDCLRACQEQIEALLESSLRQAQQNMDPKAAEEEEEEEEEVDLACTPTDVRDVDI
T4 sequence (P11802 whole entry): as the sequence (P11802 whole entry) above
T4 sequence (P30281 whole entry partner): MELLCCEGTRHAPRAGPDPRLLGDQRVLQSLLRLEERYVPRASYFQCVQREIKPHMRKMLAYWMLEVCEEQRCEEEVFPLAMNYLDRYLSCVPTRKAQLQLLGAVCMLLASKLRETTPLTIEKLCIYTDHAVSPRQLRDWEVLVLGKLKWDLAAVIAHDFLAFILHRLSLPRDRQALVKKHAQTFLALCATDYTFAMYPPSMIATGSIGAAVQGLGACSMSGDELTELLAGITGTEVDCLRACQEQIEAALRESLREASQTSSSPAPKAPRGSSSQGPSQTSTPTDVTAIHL
Sequence of KIT(V559D) (P10721 whole entry V559D): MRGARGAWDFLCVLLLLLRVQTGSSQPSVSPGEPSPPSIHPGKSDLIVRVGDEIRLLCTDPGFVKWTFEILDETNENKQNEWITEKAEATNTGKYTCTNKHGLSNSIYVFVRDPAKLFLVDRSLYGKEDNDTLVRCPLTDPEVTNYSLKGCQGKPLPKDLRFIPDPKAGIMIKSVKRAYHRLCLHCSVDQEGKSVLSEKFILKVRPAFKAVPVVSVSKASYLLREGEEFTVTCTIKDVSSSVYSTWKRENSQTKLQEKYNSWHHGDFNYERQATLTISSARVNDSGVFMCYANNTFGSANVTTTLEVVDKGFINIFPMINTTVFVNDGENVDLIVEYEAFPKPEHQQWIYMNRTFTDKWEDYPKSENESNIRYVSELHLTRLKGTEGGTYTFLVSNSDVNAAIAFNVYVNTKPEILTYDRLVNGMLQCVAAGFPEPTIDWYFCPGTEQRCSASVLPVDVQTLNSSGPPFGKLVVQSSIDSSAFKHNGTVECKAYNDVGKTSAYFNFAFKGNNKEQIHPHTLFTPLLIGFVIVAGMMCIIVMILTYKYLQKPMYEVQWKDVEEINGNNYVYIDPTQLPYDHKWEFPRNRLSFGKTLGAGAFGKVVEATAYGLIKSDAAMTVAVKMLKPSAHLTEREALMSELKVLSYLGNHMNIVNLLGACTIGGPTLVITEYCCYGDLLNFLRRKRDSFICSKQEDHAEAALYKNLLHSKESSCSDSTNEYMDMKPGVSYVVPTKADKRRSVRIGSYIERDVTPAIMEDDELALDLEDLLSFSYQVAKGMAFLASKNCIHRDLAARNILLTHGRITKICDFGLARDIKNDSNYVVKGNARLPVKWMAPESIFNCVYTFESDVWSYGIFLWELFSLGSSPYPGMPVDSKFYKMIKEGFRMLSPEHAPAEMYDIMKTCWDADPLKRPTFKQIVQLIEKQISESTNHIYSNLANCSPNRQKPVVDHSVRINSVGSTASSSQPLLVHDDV

C=CC(=O)Nc1cc(-n2c(=O)ccc3cnc4ccc(-n5cccn5)cc4c32)ccc1C [CHMFL-BTK-11]
remaining binding at 1 µM (ASK2): 100%
remaining binding at 1 µM (AXL): 100%
remaining binding at 1 µM (CAMK1G): 84%
remaining binding at 1 µM (CDC2L2): 100%
remaining binding at 1 µM (CDK4-cyclinD1): 97%
remaining binding at 1 µM (CDK4-cyclinD3): 100%
remaining binding at 1 µM (CDKL5): 100%
remaining binding at 1 µM (CSNK1G3): 100%
remaining binding at 1 µM (DRAK2): 95%
remaining binding at 1 µM (DYRK1A): 100%
remaining binding at 1 µM (DYRK1B): 65%
remaining binding at 1 µM (EPHB6): 87%
remaining binding at 1 µM [1]: 82%
remaining binding at 1 µM (KIT(V559D)): 100%
remaining binding at 1 µM (LOK): 97%
remaining binding at 1 µM (MAP3K1): 100%
remaining binding at 1 µM (MYO3A): 100%
remaining binding at 1 µM (PFTAIRE2): 100%
remaining binding at 1 µM (PIK3C2G): 95%
remaining binding at 1 µM (RIOK1): 66%
remaining binding at 1 µM [2]: 91%
remaining binding at 1 µM [3]: 100%
remaining binding at 1 µM (SLK): 100%
remaining binding at 1 µM (TAOK2): 91%
